Tested on: 379773-124-R-J2-PDC spheroid viability
Experiment: Anticancer human tumor 379773-124-R-J2-PDC patient-derived endometrial carcinoma cell line growth inhibition [POLQ]
Conditions: spheroids with HUVEC and MSC; for IC50: curve of first compound; for viability, T/C: stronger effect = lower value
In short: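 Three-cell-type spheroids modelling solid tumor plus stroma served as the readout system; POL inhibitors were tested individually and in combination, concentration ranges set by clinical Cmax where known.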

[1] = second compound 0.0316 µM, first compound 0.0316 µM
[2] = second compound 0.0316 µM, first compound 0.1 µM
[3] = second compound 0.0316 µM, first compound 0.316 µM
[4] = second compound 0.0316 µM, first compound 1 µM
[5] = second compound 0.0316 µM, first compound 3.16 µM
[6] = second compound 0.0316 µM, first compound 10 µM
[7] = second compound 0.1 µM, first compound 0.0316 µM
[8] = second compound 0.1 µM, first compound 0.1 µM
[9] = second compound 0.1 µM, first compound 0.316 µM
[10] = second compound 0.1 µM, first compound 1 µM
[11] = second compound 0.1 µM, first compound 3.16 µM
[12] = second compound 0.1 µM, first compound 10 µM
[13] = second compound 0.316 µM, first compound 0.0316 µM
[14] = second compound 0.316 µM, first compound 0.1 µM
[15] = second compound 0.316 µM, first compound 0.316 µM
[16] = second compound 0.316 µM, first compound 1 µM
[17] = second compound 0.316 µM, first compound 3.16 µM
[18] = second compound 0.316 µM, first compound 10 µM
[19] = second compound 1 µM, first compound 0.0316 µM
[20] = second compound 1 µM, first compound 0.1 µM
[21] = second compound 1 µM, first compound 0.316 µM
[22] = second compound 1 µM, first compound 1 µM
[23] = second compound 1 µM, first compound 3.16 µM
[24] = second compound 1 µM, first compound 10 µM
[25] = second compound 3.16 µM, first compound 0.0316 µM
[26] = second compound 3.16 µM, first compound 0.1 µM
[27] = second compound 3.16 µM, first compound 0.316 µM
[28] = second compound 3.16 µM, first compound 1 µM
[29] = second compound 3.16 µM, first compound 3.16 µM
[30] = second compound 3.16 µM, first compound 10 µM
[31] = second compound 10 µM, first compound 0.0316 µM
[32] = second compound 10 µM, first compound 0.1 µM
[33] = second compound 10 µM, first compound 0.316 µM
[34] = second compound 10 µM, first compound 1 µM
[35] = second compound 10 µM, first compound 3.16 µM
[36] = second compound 10 µM, first compound 10 µM
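Further: spheroids exposed to drugs for seven days before readout.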
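Wherever viability, T/C is given: percent viability relative to DMSO vehicle control taken as 100%.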

O=c1[nH]cc(F)c(=O)[nH]1 + Cc1cccc(N(C)C(=O)C2C(O)CCN2c2nc(C)cc(C(F)(F)F)c2C#N)c1
IC50 (second compound 0.0316 µM): > 10 µM | IC50 (second compound 0.1 µM): > 10 µM | IC50 (second compound 0.316 µM): > 10 µM | IC50 (second compound 1 µM): > 10 µM | IC50 (second compound 3.16 µM): > 10 µM | IC50 (second compound 10 µM): > 10 µM | viability, T/C [1]: 95% | viability, T/C [2]: 88.5% | viability, T/C [3]: 88.2% | viability, T/C [4]: 77.2% | viability, T/C [5]: 76.6% | viability, T/C [6]: 61.5% | viability, T/C [7]: 95.5% | viability, T/C [8]: 90.7% | viability, T/C [9]: 93.4% | viability, T/C [10]: 85.8% | viability, T/C [11]: 82% | viability, T/C [12]: 58.7% | viability, T/C [13]: 91.8% | viability, T/C [14]: 88.7% | viability, T/C [15]: 94% | viability, T/C [16]: 74.5% | viability, T/C [17]: 82% | viability, T/C [18]: 68.8% | viability, T/C [19]: 92.2% | viability, T/C [20]: 90.4% | viability, T/C [21]: 82.2% | viability, T/C [22]: 86.3% | viability, T/C [23]: 74.2% | viability, T/C [24]: 67.7% | viability, T/C [25]: 84.9% | viability, T/C [26]: 97.8% | viability, T/C [27]: 79.8% | viability, T/C [28]: 76.5% | viability, T/C [29]: 77.3% | viability, T/C [30]: 52.9% | viability, T/C [31]: 78.7% | viability, T/C [32]: 96.6% | viability, T/C [33]: 96.4% | viability, T/C [34]: 83% | viability, T/C [35]: 75% | viability, T/C [36]: 56.2%

COc1cc2cc(C(=O)CCC(=O)O)sc2cc1OC + COC1C(OC(N)=O)C(O)C(Oc2ccc3c(O)c(NC(=O)c4ccc(O)c(CC=C(C)C)c4)c(=O)oc3c2C)OC1(C)C
IC50 (second compound 0.0316 µM): > 10 µM | IC50 (second compound 0.1 µM): > 10 µM | IC50 (second compound 0.316 µM): > 10 µM | IC50 (second compound 1 µM): > 10 µM | IC50 (second compound 3.16 µM): > 10 µM | IC50 (second compound 10 µM): > 10 µM | viability, T/C [1]: 85.9% | viability, T/C [2]: 75.8% | viability, T/C [3]: 92.1% | viability, T/C [4]: 82.5% | viability, T/C [5]: 78% | viability, T/C [6]: 91.4% | viability, T/C [7]: 88.2% | viability, T/C [8]: 82% | viability, T/C [9]: 90.2% | viability, T/C [10]: 83.3% | viability, T/C [11]: 85.5% | viability, T/C [12]: 96.6% | viability, T/C [13]: 96% | viability, T/C [14]: 83.6% | viability, T/C [15]: 76.5% | viability, T/C [16]: 82.1% | viability, T/C [17]: 81% | viability, T/C [18]: 84.6% | viability, T/C [19]: 82.7% | viability, T/C [20]: 84.1% | viability, T/C [21]: 90.9% | viability, T/C [22]: 89% | viability, T/C [23]: 90% | viability, T/C [24]: 78.2% | viability, T/C [25]: 99.9% | viability, T/C [26]: 82.5% | viability, T/C [27]: 78.1% | viability, T/C [28]: 78.7% | viability, T/C [29]: 90.2% | viability, T/C [30]: 85.3% | viability, T/C [31]: 92.8% | viability, T/C [32]: 86.1% | viability, T/C [33]: 86% | viability, T/C [34]: 69.2% | viability, T/C [35]: 86.1% | viability, T/C [36]: 95.4%

COc1ccc([C@@H](O)c2cc(-c3ncnc4cc(N5CCOCC5)ccc34)c(F)cc2Cl)nn1 + Nc1ccc(C#CCN(C(=O)Cc2ncc(C(F)(F)F)cc2C(F)(F)F)c2ccc(F)cc2)nn1
IC50 (second compound 0.0316 µM): 9.88 µM | IC50 (second compound 0.1 µM): 7.66 µM | IC50 (second compound 0.316 µM): 7.78 µM | IC50 (second compound 1 µM): 9.09 µM | IC50 (second compound 3.16 µM): 7.08 µM | IC50 (second compound 10 µM): 8.7 µM | viability, T/C [1]: 98.9% | viability, T/C [2]: 104% | viability, T/C [3]: 101% | viability, T/C [4]: 83.8% | viability, T/C [5]: 89.1% | viability, T/C [6]: 48.4% | viability, T/C [7]: 90.3% | viability, T/C [8]: 104% | viability, T/C [9]: 89.6% | viability, T/C [10]: 95.2% | viability, T/C [11]: 77% | viability, T/C [12]: 41.6% | viability, T/C [13]: 98.4% | viability, T/C [14]: 96.2% | viability, T/C [15]: 99.3% | viability, T/C [16]: 91.4% | viability, T/C [17]: 105% | viability, T/C [18]: 36.7% | viability, T/C [19]: 97.4% | viability, T/C [20]: 83.9% | viability, T/C [21]: 85.6% | viability, T/C [22]: 99.9% | viability, T/C [23]: 79.5% | viability, T/C [24]: 47.4% | viability, T/C [25]: 91.8% | viability, T/C [26]: 92.1% | viability, T/C [27]: 82.6% | viability, T/C [28]: 90.3% | viability, T/C [29]: 76.4% | viability, T/C [30]: 38.8% | viability, T/C [31]: 90.8% | viability, T/C [32]: 87% | viability, T/C [33]: 87.8% | viability, T/C [34]: 85.9% | viability, T/C [35]: 105% | viability, T/C [36]: 44.2%

CC1COCCN1c1cc(C2(S(C)(=N)=O)CC2)nc(-c2ccnc3[nH]ccc23)n1 (stereo not drawn) + Cc1cccc(N(C)C(=O)C2C(O)CCN2c2nc(C)cc(C(F)(F)F)c2C#N)c1
IC50 (second compound 0.0316 µM): 2.06 µM | IC50 (second compound 0.1 µM): 1.87 µM | IC50 (second compound 0.316 µM): 1.97 µM | IC50 (second compound 1 µM): 1.84 µM | IC50 (second compound 3.16 µM): 2.03 µM | IC50 (second compound 10 µM): 1.63 µM | viability, T/C [1]: 83.3% | viability, T/C [2]: 84.7% | viability, T/C [3]: 81.1% | viability, T/C [4]: 77% | viability, T/C [5]: 34.2% | viability, T/C [6]: 5.98% | viability, T/C [7]: 89.4% | viability, T/C [8]: 91.2% | viability, T/C [9]: 79.7% | viability, T/C [10]: 81.5% | viability, T/C [11]: 23.9% | viability, T/C [12]: 5.96% | viability, T/C [13]: 87.1% | viability, T/C [14]: 97% | viability, T/C [15]: 80.1% | viability, T/C [16]: 78.6% | viability, T/C [17]: 30.6% | viability, T/C [18]: 8.62% | viability, T/C [19]: 81.4% | viability, T/C [20]: 78.8% | viability, T/C [21]: 79.8% | viability, T/C [22]: 69.4% | viability, T/C [23]: 32.7% | viability, T/C [24]: 6.64% | viability, T/C [25]: 84.4% | viability, T/C [26]: 88.7% | viability, T/C [27]: 79.2% | viability, T/C [28]: 61.8% | viability, T/C [29]: 42.2% | viability, T/C [30]: 7.75% | viability, T/C [31]: 84.6% | viability, T/C [32]: 73.3% | viability, T/C [33]: 79.2% | viability, T/C [34]: 62.5% | viability, T/C [35]: 32.2% | viability, T/C [36]: 8.39%

— PubChem BioAssay AID1963848 (Molecular Pharmacology Branch, DTP, NCI, 2024)
